Target: FtCCAP (Francisella tularensis class C acid phosphatase) (Francisella tularensis, UniProt Q5NH51)
Assay: biochemical

Sequence of FtCCAP (Francisella tularensis class C acid phosphatase) (Q5NH51 22-247 limits assumed): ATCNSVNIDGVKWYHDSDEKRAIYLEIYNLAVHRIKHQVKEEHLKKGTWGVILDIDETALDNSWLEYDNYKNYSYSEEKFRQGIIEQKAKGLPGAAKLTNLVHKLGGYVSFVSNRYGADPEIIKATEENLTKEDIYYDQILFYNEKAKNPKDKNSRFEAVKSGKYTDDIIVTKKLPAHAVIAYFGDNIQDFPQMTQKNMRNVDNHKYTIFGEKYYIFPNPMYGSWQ

Nc1ncnc2c1ncn2[C@@H]1O[C@H](COP(O)(O)=S)[C@@H](O)[C@H]1O [AMPS]
Ki: 300 ± 30 nM

Source: PMC3203990 (The FEBS journal, 2011)
